Several values for one entry are separate records, joined by “and”; a condition that tells them apart may be missing. Equal entries are not always repeated.
How the values were obtained:
PDE10A = target: T1, PDE10A (Rattus norvegicus, UniProt Q9QYJ6); test: MicroPET imaging studies; format: in vivo, male Wistar rats
T1 construct: from tissue; host or cells: brain (striatum) of living male Wistar rats, in vivo microPET
T1 sequence (Q9QYJ6 1-794): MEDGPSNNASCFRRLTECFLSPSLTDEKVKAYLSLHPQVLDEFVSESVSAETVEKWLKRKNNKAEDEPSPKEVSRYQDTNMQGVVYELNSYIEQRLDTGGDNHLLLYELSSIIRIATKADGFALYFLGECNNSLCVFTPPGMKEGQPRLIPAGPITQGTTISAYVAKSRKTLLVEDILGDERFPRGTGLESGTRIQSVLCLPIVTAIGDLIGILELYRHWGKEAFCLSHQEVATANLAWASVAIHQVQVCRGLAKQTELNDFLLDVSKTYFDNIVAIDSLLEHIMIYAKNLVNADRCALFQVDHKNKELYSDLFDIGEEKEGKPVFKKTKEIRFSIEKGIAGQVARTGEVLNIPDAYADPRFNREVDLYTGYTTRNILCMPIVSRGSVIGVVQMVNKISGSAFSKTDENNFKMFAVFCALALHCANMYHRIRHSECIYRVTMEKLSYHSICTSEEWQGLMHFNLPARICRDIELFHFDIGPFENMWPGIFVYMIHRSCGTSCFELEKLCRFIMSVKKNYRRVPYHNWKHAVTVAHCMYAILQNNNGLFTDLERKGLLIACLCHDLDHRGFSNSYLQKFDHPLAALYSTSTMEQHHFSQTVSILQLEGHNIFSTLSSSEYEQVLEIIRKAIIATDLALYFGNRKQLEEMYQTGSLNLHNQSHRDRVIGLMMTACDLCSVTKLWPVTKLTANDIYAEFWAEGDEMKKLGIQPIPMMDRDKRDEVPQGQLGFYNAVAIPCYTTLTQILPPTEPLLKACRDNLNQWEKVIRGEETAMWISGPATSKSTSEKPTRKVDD
Method: Imaging experiments were performed on a Focus™ 220 microPET scanner (Concorde Microsystems, Knoxville, Tenn., USA) using male Wistar rats with body weight varying between 300 and 600 g. […] Dynamic scans of 120 min were acquired in list mode. After reconstruction of the images, they were semi-automatically co-registered with a [^11C]raclopride template of the rat brain, and volumes of interest (VOIs) were generated for different anatomical brain structures (striatum, cerebral cortex and cerebellum) from which time-activity curves (TAC) were constructed for each individual image, using PMOD software (PMOD Technologies Ltd.). Normalization for body weight of the animal and injected dose was done. The radioactivity concentration in the different brain regions was expressed as SUV (standardized uptake value) as a function of time in seconds post injection of the radiotracer. The parametric binding potential (BP) values were calculated for all acquired images by using a simplified reference tissue model where the TAC of the cerebellum was used as input TAC for non-specific binding, using the same software (PMOD).
The radioactivity concentration in the different brain regions was expressed as SUV value as a function of time p.i. of the radiotracer by normalization for body weight of the animal and injected dose.

[1] = Biodistribution studies of the 18F tracers in rats; format: in vivo, male Wistar rats; settings: rat
Method: Biodistribution studies were carried out in healthy male Wister rats (body weight 200-500 g) at 2 min, 30 min and 60 min post injection (p.i.) (n=3/time point). For |^18F|B-4 only the 2 min and 30 min time points were studied. […] Blood and major organs were collected in tared tubes and weighed. The radioactivity in blood, organs and other body parts was measured using an automated gamma counter. The distribution of radioactivity in different parts of the body at different time points p.i. of the tracer was calculated and expressed as percentage of injected dose (% ID), and as percentage of injected dose per gram tissue (% ID/g) for the selected organs. % ID is calculated as cpm in organ/total cpm recovered. For calculation of total radioactivity in blood, blood mass was assumed to be 7% of the body mass.

COc1ccc(COc2ccc(-c3nn(CC[18F])cc3-c3ccncc3)cc2)nc1 [[^18F]B-4]
peak (maximum) striatum-to-cerebellum ratio (PDE10A; baseline microPET): 4.4
time of peak striatum-to-cerebellum ratio (PDE10A; baseline microPET): about 6 min p.i.
time until which peak striatum-to-cerebellum ratio remained (PDE10A; baseline microPET): about 13 min p.i.
BP (binding potential) at baseline (PDE10A; simplified reference tissue model, cerebellum as reference): 2.5
retention in the PDE10A-rich region striatum ([1]; biodistribution studies): retention
Clearance, 2 min/30 min ratio of % ID/g (normalized for body weight), Blood ([1]; i.v.): 1.36
Clearance, 2 min/30 min ratio of % ID/g (normalized for body weight), Cerebellum ([1]; i.v.): 3.82
Clearance, 2 min/30 min ratio of % ID/g (normalized for body weight), Cerebrum total ([1]; i.v.): 2.90
Clearance, 2 min/30 min ratio of % ID/g (normalized for body weight), Cortex ([1]; i.v.): 4.24
Clearance, 2 min/30 min ratio of % ID/g (normalized for body weight), Hippocampus ([1]; i.v.): 3.08
Clearance, 2 min/30 min ratio of % ID/g (normalized for body weight), Rest of cerebrum ([1]; i.v.): 2.87
Clearance, 2 min/30 min ratio of % ID/g (normalized for body weight), Striatum ([1]; i.v.): 1.80
% ID, Blood ([1]; i.v., 2 min p.i.): 4.55 ± 0.4 % ID
% ID, Carcass ([1]; i.v., 2 min p.i.): 36.93 ± 1.3 % ID
% ID, Cerebellum ([1]; i.v., 2 min p.i.): 0.07 % ID and 0.065 ± 0.011 % ID
% ID, Cerebrum total ([1]; i.v., 2 min p.i.): 0.32 % ID and 0.317 ± 0.014 % ID
% ID, Cortex ([1]; i.v., 2 min p.i.): 0.036 ± 0.007 % ID
% ID, Heart ([1]; i.v., 2 min p.i.): 0.62 ± 0.2 % ID
% ID, Hippocampus ([1]; i.v., 2 min p.i.): 0.006 ± 0.002 % ID
% ID, Intestines ([1]; i.v., 2 min p.i.): 12.02 ± 2.1 % ID
% ID, Kidneys ([1]; i.v., 2 min p.i.): 4.99 ± 0.2 % ID
% ID, Liver ([1]; i.v., 2 min p.i.): 35.98 ± 3.1 % ID
% ID, Lungs ([1]; i.v., 2 min p.i.): 1.12 ± 0.0 % ID
% ID, Rest of cerebrum ([1]; i.v., 2 min p.i.): 0.257 ± 0.014 % ID
% ID, Spleen + Pancreas ([1]; i.v., 2 min p.i.): 2.37 ± 0.2 % ID
% ID, Stomach ([1]; i.v., 2 min p.i.): 2.8 % ID and 2.80 ± 0.2 % ID
% ID, Striatum ([1]; i.v., 2 min p.i.): 0.018 ± 0.003 % ID
% ID, Urine ([1]; i.v., 2 min p.i.): 0.28 ± 0.1 % ID
% ID/g normalized for body weight, Blood ([1]; i.v., 2 min p.i.): 0.07 ± 0.01 % ID/g × body wt. in kg
% ID/g normalized for body weight, Cerebellum ([1]; i.v., 2 min p.i.): 0.109 % ID/g × body wt. in kg and 0.109 ± 0.01 % ID/g × body wt. in kg
% ID/g normalized for body weight, Cerebrum + Cerebellum ([1]; i.v., 2 min p.i.): 0.13 ± 0.01 % ID/g × body wt. in kg
% ID/g normalized for body weight, Cerebrum total ([1]; i.v., 2 min p.i.): 0.124 ± 0.01 % ID/g × body wt. in kg
% ID/g normalized for body weight, Cortex ([1]; i.v., 2 min p.i.): 0.168 % ID/g × body wt. in kg and 0.168 ± 0.00 % ID/g × body wt. in kg
% ID/g normalized for body weight, Heart ([1]; i.v., 2 min p.i.): 0.21 ± 0.06 % ID/g × body wt. in kg
% ID/g normalized for body weight, Hippocampus ([1]; i.v., 2 min p.i.): 0.091 % ID/g × body wt. in kg and 0.091 ± 0.01 % ID/g × body wt. in kg
% ID/g normalized for body weight, Kidneys ([1]; i.v., 2 min p.i.): 0.63 ± 0.17 % ID/g × body wt. in kg
% ID/g normalized for body weight, Liver ([1]; i.v., 2 min p.i.): 1.09 ± 0.08 % ID/g × body wt. in kg
% ID/g normalized for body weight, Lungs ([1]; i.v., 2 min p.i.): 0.22 ± 0.03 % ID/g × body wt. in kg
% ID/g normalized for body weight, Rest of cerebrum ([1]; i.v., 2 min p.i.): 0.117 ± 0.01 % ID/g × body wt. in kg
% ID/g normalized for body weight, Spleen + Pancreas ([1]; i.v., 2 min p.i.): 0.55 ± 0.03 % ID/g × body wt. in kg
% ID/g normalized for body weight, Striatum ([1]; i.v., 2 min p.i.): 0.226 % ID/g × body wt. in kg and 0.226 ± 0.01 % ID/g × body wt. in kg
% ID/g, Blood ([1]; i.v., 2 min p.i.): 0.14 ± 0.04 % ID/g
% ID/g, Cerebellum ([1]; i.v., 2 min p.i.): 0.231 ± 0.031 % ID/g
% ID/g, Cerebrum + Cerebellum ([1]; i.v., 2 min p.i.): 0.269 ± 0.066 % ID/g
% ID/g, Cerebrum total ([1]; i.v., 2 min p.i.): 0.263 ± 0.029 % ID/g
% ID/g, Cortex ([1]; i.v., 2 min p.i.): 0.355 ± 0.012 % ID/g
% ID/g, Heart ([1]; i.v., 2 min p.i.): 0.45 ± 0.13 % ID/g
% ID/g, Hippocampus ([1]; i.v., 2 min p.i.): 0.193 ± 0.031 % ID/g
% ID/g, Liver ([1]; i.v., 2 min p.i.): 2.32 ± 0.28 % ID/g
% ID/g, Lungs ([1]; i.v., 2 min p.i.): 0.46 ± 0.07 % ID/g
% ID/g, Rest of cerebrum ([1]; i.v., 2 min p.i.): 0.248 ± 0.030 % ID/g
% ID/g, Spleen + Pancreas ([1]; i.v., 2 min p.i.): 1.17 ± 0.03 % ID/g

From US8852554B2, “Radiolabelled PDE10 ligands” (Janssen Pharmaceutica NV, priority 2009, dated 2014)
